Patent US6737383B1, “Herbicidal oxadiazolidines” (priority 1999, dated 2004)

How the values were obtained:
[1] = system: bedstraw; experiment: Test B pre/postemergence bedstraw; assay type: in vivo, Galium aparine; details: Preemergence
In short: (§1)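 Test chemicals in a non-phytotoxic solvent mixture with surfactant were sprayed preemergence onto planted seeds and postemergence onto plants 2 to 18 cm tall (1- to 4-leaf stage). After twelve to sixteen days in a greenhouse, injury was visually rated against untreated controls from 0 (no effect) to 10 (complete control).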

[2] = system: blackgrass; experiment: Test B pre/postemergence blackgrass; assay type: in vivo, Alopecurus myosuroides
In short: as §1

[3] = system: surinam grass; experiment: Test B pre/postemergence surinam grass; assay type: in vivo, Brachiaria decumbens
In short: as §1

[4] = system: cocklebur; experiment: Test B pre/postemergence cocklebur; assay type: in vivo, Xanthium strumarium
In short: as §1

[5] = system: corn; experiment: Test B pre/postemergence corn; assay type: in vivo, Zea mays
In short: as §1

[6] = system: crabgrass; experiment: Test B pre/postemergence crabgrass; assay type: in vivo, Digitaria sanguinalis
In short: as §1

[7] = system: giant foxtail; experiment: Test B pre/postemergence giant foxtail; assay type: in vivo, Setaria faberii
In short: as §1

[8] = system: morningglory; experiment: Test B pre/postemergence morningglory; assay type: in vivo, Ipomoea hederacea
In short: as §1

[9] = system: pigweed; experiment: Test B pre/postemergence pigweed; assay type: in vivo, Amaranthus retroflexus
In short: as §1

[10] = system: rape; experiment: Test B pre/postemergence rape; assay type: in vivo, Brassica napus
In short: as §1

[11] = system: soybean; experiment: Test B pre/postemergence soybean; assay type: in vivo, Glycine max
In short: as §1

[12] = system: sugar beet; experiment: Test B pre/postemergence sugar beet; assay type: in vivo, Beta vulgaris
In short: as §1

[13] = system: velvetleaf; experiment: Test B pre/postemergence velvetleaf; assay type: in vivo, Abutilon theophrasti
In short: as §1

[14] = system: wheat; experiment: Test B pre/postemergence wheat; assay type: in vivo, Triticum aestivum
In short: as §1

[15] = system: wild oat; experiment: Test B pre/postemergence wild oat; assay type: in vivo, Avena fatua
In short: as §1

[16] = system: purple nutsedge; experiment: Test B pre/postemergence purple nutsedge; assay type: in vivo, Cyperus rotundus
In short: as §1

[17] = system: rice; experiment: Test B flood test rice; assay type: in vivo, Oryza sativa
In short: (§2)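 Flood test on plants grown to the 2-leaf stage; treated plants kept in greenhouse twelve to sixteen days, then visually rated against controls on a 0 (no effect) to 10 (complete control) scale.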

[18] = system: smallflower flatsedge; experiment: Test B flood test smallflower flatsedge; assay type: in vivo, Cyperus difformis
In short: as §2

[19] = system: duck salad; experiment: Test B flood test duck salad; assay type: in vivo, Heteranthera limosa
In short: as §2

[20] = system: bamyardgrass; experiment: Test B flood test barnyardgrass; assay type: in vivo, Echinochloa crus-galli
In short: as §2

[21] = Postemergence, Rate 62 g/ha, scale 0 to 10, 0 is no effect, 10 is complete control
[22] = Postemergence, Rate 125 g/ha, scale of 0 to 10 where 0 is no effect and 10 is complete control
[23] = Postemergence, Rate 500 g/ha, scale 0 (no effect) to 10 (complete control)
[24] = Preemergence, Rate 250 g/ha, scale 0 (no effect) to 10 (complete control)
[25] = Rate 62 g/ha, Preemergence, scale 0 to 10
[26] = Rate 250 g/ha, Postemergence, scale 0 to 10, 0 is no effect, 10 is complete control
[27] = Rate 500 g/ha, Preemergence, scale 0 to 10 (0 no effect, 10 complete control)
[28] = Rate 125 g/ha, Preemergence, scale 0 to 10 (0 no effect, 10 complete control)
[29] = Pre-emergence, Rate 62 g/ha, scale 0 to 10, 0 is no effect, 10 is complete control
[30] = Rate 125 g/ha, Pre-emergence section (flood test species), scale 0 to 10, 0 no effect, 10 complete control
[31] = Rate 250 g/ha, Pre-emergence (flood test species), scale 0 to 10, 0 is no effect, 10 is complete control
[32] = Rate 500 g/ha, Pre-emergence section of Table B, 0 to 10 scale (0 no effect, 10 complete control)

CC(C)N(C(=O)n1oc(=O)n(CC2=NOCCO2)c1=O)c1ccc(F)cc1 [Compound 765]
1: Rape plant response rating [10, 23]
5: Blackgrass plant response rating [2, 22] | B. signalgrass plant response rating ([3]; Preemergence, Rate 62 g/ha, scale of 0 to 10 where 0 is no effect and 10 is complete control) | Crabgrass plant response rating [6, 22] | Plant response rating, Giant foxtail [7, 21] | Plant response rating, Morningglory [8, 21] | Soybean plant response rating [11, 23] | Soybean plant response rating [11, 26] | Wheat plant response rating [14, 23]
2: Bedstraw plant response rating ([1]; Rate 250 g/ha, scale 0 (no effect) to 10 (complete control)) | Corn plant response rating [5, 27] | Rape plant response rating [10, 25] | Plant response rating, Soybean [11, 21] | Wild oats plant response rating [15, 23]
8: Bedstraw plant response rating ([1]; Rate 500 g/ha, scale 0 to 10 (0 no effect, 10 complete control)) | Blackgrass plant response rating [2, 24] | B. signalgrass plant response rating ([3]; Rate 500 g/ha, Postemergence, scale 0 to 10, 0 is no effect, 10 is complete control) | Giant foxtail plant response rating [7, 22] | Morningglory plant response rating [8, 23] | Redroot pigweed plant response rating [9, 23] | Redroot pigweed plant response rating [9, 25] | Rape plant response rating [10, 27] | Wheat plant response rating [14, 27]
0: Bedstraw plant response rating ([1]; Rate 62 g/ha, scale 0 to 10) | Plant response rating, Cocklebur [4, 21] | Cocklebur plant response rating [4, 22] | Cocklebur plant response rating [4, 24] | Cocklebur plant response rating [4, 25] | Cocklebur plant response rating [4, 28] | Cocklebur plant response rating [4, 26] | Cocklebur plant response rating [4, 27] | Plant response rating, Corn [5, 21] | Corn plant response rating [5, 22] | Corn plant response rating [5, 24] | Corn plant response rating [5, 25] | Corn plant response rating [5, 28] | Corn plant response rating [5, 26] | Morningglory plant response rating [8, 25] | Morningglory plant response rating [8, 28] | Morningglory plant response rating [8, 27] | Plant response rating, Rape [10, 21] | Rape plant response rating [10, 22] | Rape plant response rating [10, 26] | Soybean plant response rating [11, 25] | Soybean plant response rating [11, 28] | Soybean plant response rating [11, 27] | Plant response rating, Sugarbeets [12, 21] | Sugarbeets plant response rating [12, 26] | Velvetleaf plant response rating [13, 25] | Plant response rating, Wheat [14, 21] | Plant response rating, Wild oats [15, 21] | Wild oats plant response rating [15, 26] | Plant response rating, Nutsedge [16, 21] | Nutsedge plant response rating [16, 22] | Nutsedge plant response rating [16, 25] | Nutsedge plant response rating [16, 26] | Nutsedge plant response rating [16, 27] | Rice plant response rating [17, 29] | Rice plant response rating [17, 30] | Rice plant response rating [17, 31] | Rice plant response rating [17, 32] | S. Flatsedge plant response rating [18, 29] | S. Flatsedge plant response rating [18, 30] | S. Flatsedge plant response rating [18, 31] | S. Flatsedge plant response rating [18, 32] | Ducksalad plant response rating [19, 29] | Ducksalad plant response rating [19, 30] | Ducksalad plant response rating [19, 31] | Ducksalad plant response rating [19, 32] | Barnyardgrass plant response rating [20, 29] | Barnyardgrass plant response rating [20, 30] | Barnyardgrass plant response rating [20, 31] | Barnyardgrass plant response rating [20, 32]
7: Blackgrass plant response rating [2, 23] | Blackgrass plant response rating [2, 25] | Blackgrass plant response rating [2, 26] | B. signalgrass plant response rating [3, 22] | B. signalgrass plant response rating [3, 24] | B. signalgrass plant response rating [3, 26] | B. signalgrass plant response rating [3, 27] | Crabgrass plant response rating [6, 26] | Redroot pigweed plant response rating [9, 22] | Velvetleaf plant response rating [13, 23] | Velvetleaf plant response rating [13, 26] | Velvetleaf plant response rating [13, 27]
9: Blackgrass plant response rating [2, 27] | Crabgrass plant response rating [6, 23] | Crabgrass plant response rating [6, 25] | Giant foxtail plant response rating [7, 23] | Giant foxtail plant response rating [7, 25] | Giant foxtail plant response rating [7, 26] | Sugarbeets plant response rating [12, 27] | Wild oats plant response rating [15, 27]
4: Sugarbeets plant response rating [12, 23] | Velvetleaf plant response rating [13, 28] | Wild oats plant response rating [15, 25]
6: Morningglory plant response rating [8, 22] | Morningglory plant response rating [8, 26] | Plant response rating, Redroot pigweed [9, 21] | Sugarbeets plant response rating [12, 25] | Plant response rating, Velvetleaf [13, 21]
10: Crabgrass plant response rating [6, 24] | Crabgrass plant response rating [6, 28] | Crabgrass plant response rating [6, 27] | Giant foxtail plant response rating [7, 24] | Giant foxtail plant response rating [7, 28] | Giant foxtail plant response rating [7, 27] | Redroot pigweed plant response rating [9, 27]
3: Plant response rating, Blackgrass [2, 21] | Plant response rating, B. signalgrass [3, 21] | Cocklebur plant response rating [4, 23] | Corn plant response rating [5, 23] | Plant response rating, Crabgrass [6, 21] | Wheat plant response rating [14, 25] | Wheat plant response rating [14, 26] | Nutsedge plant response rating [16, 23]
